Measurements: paper PMC12529164, “Design, Synthesis, Structure–Activity Relationships, and Preliminary Anticancer Properties of Menthol-Modified Coumarin Esters and 3,4-Dihydrocoumarin Derivatives” (ACS Omega, 2025)
Like-named read-outs stand apart in the source and are kept apart here.

How the values were obtained:
[1] = test system: MDA-MB-231; experiment: MTT cytotoxicity assay; assay type: cell-based, human; conditions: for IC50: MTT, 72 h, human breast adenocarcinoma; for SI MDA-MB-231: SI = IC50 for normal cell line (HaCaT)/IC50 cancer cell line
Experimental: (§1) The human primary (SW480) and metastatic (SW620) colon cancer, metastatic prostate cancer (PC3), breast adenocarcinoma (MDA-MB-231) and human immortal keratinocyte (HaCaT) cell lines were recruited from the American Type Culture Collection (ATCC). The cells were cultured in the recommended medium according to protocols (RPMI 1640 for PC3, MEM for SW480 and SW620, as well as DMEM for MDA-MB-231 and HaCaT cells) with addition of 10% FBS, penicillin (100 U/mL), and streptomycin (100 μg/mL) and cultured in 37 °C/5% CO2 in a humidified incubator. Then, the cells were passaged at a confluence of 80–90% by a treatment with 0.25% trypsin (Gibco Life Technologies) and used for studies.
(§2) They were added to 96-well plates with seeded normal and cancer cells (1 × 10^4 cells per well) and incubated for 72 h. MTT analysis was performed according to a previous study.

[2] = test system: SW480; experiment: MTT cytotoxicity assay; assay type: cell-based, human; conditions: for IC50: MTT, 72 h, human primary colon cancer; for SI SW480: SI = IC50 for normal cell line (HaCaT)/IC50 cancer cell line
Experimental: as §1, §2

[3] = test system: SW620; experiment: MTT cytotoxicity assay; assay type: cell-based, human; conditions: for IC50: MTT, 72 h, human metastatic colon cancer; for SI SW620: SI = IC50 for normal cell line (HaCaT)/IC50 cancer cell line
Experimental: as §1, §2

[4] = test system: PC3; experiment: MTT cytotoxicity assay; assay type: cell-based, human; conditions: for IC50: MTT, 72 h, human metastatic prostate cancer; for SI PC3: SI = IC50 for normal cell line (HaCaT)/IC50 cancer cell line
Experimental: as §1, §2

[5] = test system: HaCaT; experiment: MTT cytotoxicity assay, normal cells; assay type: cell-based; conditions: 72 h, human immortal keratinocytes (normal cells)
Experimental: as §1, §2

[6] = test system: tested cancer cell lines (SW480, SW620, PC3, MDA-MB-231); experiment: MTT assay, mean over tested cancer cell lines; assay type: cell-based; conditions: Homo sapiens, mean of the four cancer cell lines
Experimental: They were added to 96-well plates with seeded normal and cancer cells (1 × 10^4 cells per well) and incubated for 72 h. MTT analysis was performed according to a previous study. […]

[7] = test system: Danio rerio larvae; experiment: In vivo toxicity, maximum tolerated concentration; conditions: zebrafish larvae, immersion from 96 hpf for 18 h (120 hpf), 5-150 μM tested
Experimental: Zebrafish (Danio rerio, strain AB) was maintained at the Experimental Medicine Center, Medical University of Lublin, Poland. Embryos and larvae up to 120 h postfertilization (hpf) were kept under generally accepted environmental conditions, i.e., in incubators at 28.5 °C, with 14/10 h light/dark cycles. The embryos of the Zebrafish were harvested after the natural reproduction process.
Three compounds showing low IC50 values determined on cancer lines in in vitro tests (2b, 4a) and compound 1a characterized by low cytotoxicity were used for in vivo tests. We also conducted research for coumarin. These compounds were dissolved in dimethyl sulfoxide (DMSO) (Sigma-Aldrich, St. Louis, MO, USA) and diluted in the zebrafish medium (pH 7.1–7.3; 5.0 mM NaCl, 0.17 mM KCl, 0.33 mM CaCl2, 0.33 mM MgSO4) to achieve a final DMSO concentration of 1% w/v. Twenty-four hpf zebrafish embryos were investigated under a light microscope, and […] fertilized embryos (n = 60) were selected and transferred into 48-well plates (5 embryos per well). Larvae were incubated in 1 mL of the zebrafish medium for up to 3 days after fertilization.
On the fourth day postfertilization (96 hpf), the larvae (10 individuals per group) were incubated in solutions of coumarin or its three derivatives (1a, 2b, 4a) at selected concentrations (5, 10, 25, 50, 75, 100, 150 μM), along with control solutions: negative control (zebrafish medium) and solvent control (1% DMSO in zebrafish medium). The maximum tolerated concentration (MTC) was calculated to assess the toxicity of the compounds and extracts. […] Larvae were individually inspected under a microscope for signs of acute locomotor dysfunction, including a weak reaction to light tail stimulation with a fine needle, disrupted posture, body deformities, protruding eyes, slowed or absent heartbeat, and mortality.

[8] = Table S7, >100 entered as 100, read-out: mean anticancer IC50
[9] = read-out: average IC50 against tested cancer cell lines

Row | Compound | IC50 [1] | IC50 [2] | IC50 [3] | IC50 ([1]; MDA-MB-231) | SI MDA-MB-231 [1] | IC50 ([4]; PC-3) | SI PC3 [4] | SI SW480 [2] | IC50 ([2]; SW480) | SI SW620 [3] | IC50 ([3]; SW-620) | IC50 ([5]; HaCaT) | IC50 [6, 8] | IC50 [6, 9] | maximum tolerated concentration (MTC) [7] | IC50 [4] | IC50 [5]
1 | N.N.[Cl][Pt][Cl] [Cisplatin, reference compound] | 7.3 ± 0.8 µM | 10.4 ± 0.9 µM | 6.7 ± 1.1 µM |  |  |  |  |  |  |  |  |  |  |  |  |  | 
2 | CC(C)[C@@H]1CC[C@@H](C)C[C@H]1OC(=O)c1cc2ccccc2oc1=O [Compound 1a, (1R,2S,5R)-2-Isopropyl-5-methylcyclohexyl 2-oxo-2H-chromene-3-carboxylate] |  |  |  | 76.5 ± 8.85 µM | 1.08 | 57.8 ± 3.87 µM | 1.43 | 1.17 | 70.5 ± 2.31 µM | 1.44 | 57.3 ± 5.36 µM | 82.7 ± 3.5 µM | 65.5 µM | 65.5 µM | 0 µM |  | 
3 | CC(C)[C@H]1CC[C@H](C)C[C@@H]1OC(=O)c1cc2ccccc2oc1=O [Compound 1b, (1S,2R,5S)-2-Isopropyl-5-methylcyclohexyl 2-oxo-2H-chromene-3-carboxylate] |  |  |  | > 100 µM | 0.41 | > 100 µM | 0.41 | 0.41 | > 100 µM | 0.41 | > 100 µM | 41.1 ± 2.8 µM | > 100 µM |  |  |  | 
4 | COc1ccc2cc(C(=O)O[C@@H]3C[C@H](C)CC[C@H]3C(C)C)c(=O)oc2c1 [Compound 1c, (1R,2S,5R)-2-Isopropyl-5-methylcyclohexyl 7-methoxy-2-oxo-2H-chromene-3-carboxylate] |  |  |  | > 100 µM | 0.15 | > 100 µM | 0.15 | 0.15 | > 100 µM | 0.15 | > 100 µM | 15.3 ± 4.41 µM | > 100 µM |  |  |  | 
5 | COc1cccc2cc(C(=O)O[C@@H]3C[C@H](C)CC[C@H]3C(C)C)c(=O)oc12 [Compound 1d, (1R,2S,5R)-2-Isopropyl-5-methylcyclohexyl 8-Methoxy-2-oxo-2H-chromene-3-carboxylate] |  |  |  | 36.6 ± 7.74 µM | 2.73 | 29.3 ± 2.05 µM | 3.41 | 3.93 | 25.4 ± 6.12 µM | 1 | > 100 µM | > 100 µM | > 47.8 µM | > 47.8 µM |  |  | 
6 | CC(C)[C@@H]1CC[C@@H](C)C[C@H]1OC(=O)c1cc2ccc(O)cc2oc1=O [Compound 1e, (1R,2S,5R)-2-Isopropyl-5-methylcyclohexyl 7-hydroxy-2-oxo-2H-chromene-3-carboxylate] |  |  |  | 86.7 ± 2.24 µM | 0.91 | 21.8 ± 4.21 µM | 3.61 | 2.84 | 27.7 ± 2.42 µM | 2.03 | 38.7 ± 0.01 µM | 78.8 ± 7.12 µM | 43.7 µM | 43.7 µM |  |  | 
7 | O=C(OC1CCCCC1)c1cc2ccccc2oc1=O [Compound 1f, Cyclohexyl 2-Oxo-2H-chromene-3-carboxylate] |  |  |  | > 100 µM | 1 | > 100 µM | 1 | 1 | > 100 µM | 1 | > 100 µM | > 100 µM | > 100 µM |  |  |  | 
8 | CCOP(=O)(OCC)c1cc2ccccc2oc1=O [Compound 2a, Diethyl (2-Oxo-2H-chromen-3-yl)phosphonate] | > 100 µM | > 100 µM | > 100 µM |  | 1 |  | 1 | 1 |  | 1 |  |  |  |  |  | > 100 µM | > 100 µM
9 | COc1cccc2cc(P(=O)(c3ccccc3)c3ccccc3)c(=O)oc12 [Compound 3, 3-(Diphenylphosphinyl)-8-methoxy-2H-chromen-2-one] |  |  |  | > 100 µM | 1 | > 100 µM | 1 | 1 | > 100 µM | 1 | > 100 µM | > 100 µM | > 100 µM |  |  |  | 
10 | CCOC(=O)C1C(=O)Oc2ccccc2C1P(=O)(c1ccccc1)c1ccccc1 (stereo not drawn) [Compound 4c, Ethyl 4-(Diphenylphosphoryl)-2-oxochroman-3-carboxylate] |  |  |  | > 100 µM | 1 | > 100 µM | 1 | 1 | > 100 µM | 1 | > 100 µM | > 100 µM | > 100 µM |  |  |  | 
11 | CCOC(=O)C1C(=O)Oc2ccccc2C1P(=O)(OCC)OCC (stereo not drawn) [Compound 4d, Ethyl 4-(diethoxyphosphoryl)-2-oxochroman-3-carboxylate] |  |  |  | > 100 µM | 1 | > 100 µM | 1 | 1 | > 100 µM | 1 | > 100 µM | > 100 µM | > 100 µM |  |  |  | 
12 | CCOP(=O)(OCC)C1C(=O)Oc2ccccc2C1P(=O)(c1ccccc1)c1ccccc1 (stereo not drawn) [Compound 5a, Diethyl (4-(Diphenylphosphoryl)-2-oxochroman-3-yl)phosphonate] |  |  |  | > 100 µM | 1 | > 100 µM | 1 | 1 | > 100 µM | 1 | > 100 µM | > 100 µM | > 100 µM |  |  |  | 
13 | CCOP(=O)(OCC)C1C(=O)Oc2c(OC)cccc2C1P(=O)(c1ccccc1)c1ccccc1 (stereo not drawn) [Compound 5b, Diethyl (4-(Diphenylphosphoryl)-8-methoxy-2-oxochroman-3-yl)phosphonate] |  |  |  | > 100 µM | 1 | > 100 µM | 1 | 1 | > 100 µM | 1 | > 100 µM | > 100 µM | > 100 µM |  |  |  | 
14 | COc1cccc2c1C(=O)c1c(O)c3c(c(O)c1C2=O)C[C@@](O)(C(=O)CO)C[C@@H]3O[C@H]1C[C@H](N)[C@H](O)[C@H](C)O1 [Doxorubicin, reference compound] |  |  |  | 1.6 ± 0.2 µM |  | 0.3 ± 0.1 µM | 1.0 | 0.4 | 0.7 ± 0.1 µM | 1.0 | 0.3 ± 0.1 µM | 0.3 ± 0.1 µM |  |  |  |  | 
15 | O=c1ccc2ccccc2o1 [coumarin, 2H-chromen-2-one] |  |  |  |  |  |  |  |  |  |  |  |  |  |  | 100 µM |  | 
